The CheMixHub viscosity set
Several values for one entry are separate records, joined by “and”; a condition that tells them apart may be missing. Equal values may be shown once.

Assay: xn = mol fraction of the nth substance listed

N[C@@H](Cc1c[nH]cn1)C(=O)[O-].[K+] + O
viscosity [mPa·s], 101.3 kPa
Details | 293.15 K | 298.15 K | 303.15 K | 308.15 K | 313.15 K | 318.15 K | 323.15 K
x1 = 0.00475 | 1.09 | 0.9617 | 0.8629 | 0.7803 | 0.7087 | 0.648 | 0.5955
x1 = 0.00983 | 1.242 | 1.093 | 0.9797 | 0.8847 | 0.8025 | 0.7344 | 0.6734
x1 = 0.0145 | 1.421 | 1.252 | 1.119 | 1.007 | 0.9131 | 0.8323 | 0.7621
x1 = 0.02037 | 1.662 | 1.457 | 1.299 | 1.167 | 1.053 | 0.9568 | 0.8736
x1 = 0.03224 | 2.28 | 2.002 | 1.768 | 1.578 | 1.417 | 1.279 | 1.164
x1 = 0.04399 | 3.048 | 2.632 | 2.315 | 2.049 | 1.828 | 1.641 | 1.484

OC[C@@H](O)[C@@H](O)[C@H](O)[C@H](O)CO + O
viscosity, 101 kPa
Details | 298.15 K | 303.15 K | 308.15 K | 313.15 K | 318.15 K | 323.15 K
x1 = 0.002 | – | 0.837 mPa·s | 0.748 mPa·s | 0.674 mPa·s | – | 0.565 mPa·s
x1 = 0.003588 | 0.9818 mPa·s | – | – | – | – | –
x1 = 0.004 | – | 0.872 mPa·s | 0.777 mPa·s | 0.705 mPa·s | 0.645 mPa·s | 0.587 mPa·s
x1 = 0.005 | – | 0.909 mPa·s | 0.814 mPa·s | 0.732 mPa·s | 0.671 mPa·s | 0.61 mPa·s
x1 = 0.007 | – | 0.941 mPa·s | 0.845 mPa·s | 0.757 mPa·s | 0.692 mPa·s | 0.626 mPa·s
x1 = 0.007158 | 1.085 mPa·s | – | – | – | – | –
x1 = 0.009 | – | 0.983 mPa·s | 0.883 mPa·s | 0.788 mPa·s | 0.722 mPa·s | 0.653 mPa·s
x1 = 0.01 | – | 1.069 mPa·s | 0.914 mPa·s and 0.949 mPa·s and 0.992 mPa·s | 0.821 mPa·s and 0.886 mPa·s | 0.75 mPa·s and 0.777 mPa·s and 0.81 mPa·s | 0.673 mPa·s and 0.697 mPa·s and 0.731 mPa·s
x1 = 0.01069 | 1.191 mPa·s | – | – | – | – | –
x1 = 0.01422 | 1.311 mPa·s | – | – | – | – | –
x1 = 0.01769 | 1.442 mPa·s | – | – | – | – | –
x1 = 0.018 | – | 1.217 mPa·s | 1.088 mPa·s | 0.966 mPa·s | 0.876 mPa·s | 0.786 mPa·s
x1 = 0.02 | – | 1.17 mPa·s | 1.038 mPa·s | 0.928 mPa·s | 0.84 mPa·s | 0.756 mPa·s

[Na+].[Na+].[O]=[Cr](=[O])([O-])[O-] + O
viscosity, 101 kPa
Details | x1 = 0.012 | x1 = 0.02109 | x1 = 0.027 | x1 = 0.045 | x1 = 0.069 | x1 = 0.083
298.15 K | 1.16 mPa·s | 1.38 mPa·s | 1.68 mPa·s | 2.88 mPa·s | 6.14 mPa·s | 10.03 mPa·s
312.95 K | 0.85 mPa·s and 0.8523 mPa·s | – | 1.23 mPa·s | 1.98 mPa·s | 3.9 mPa·s | 5.94 mPa·s

Cc1cccc(O)c1 + O=Cc1ccccc1
308.15 K, 101.33 kPa
Details | viscosity [mPa·s]
x2 = 0.103 | 5.863
x2 = 0.308 | 3.972
x2 = 0.398 | 3.45
x2 = 0.545 | 2.597
x2 = 0.602 | 2.3
x2 = 0.704 | 1.844
x2 = 0.903 | 1.37

N + O=[N+]([O-])[O-].O=[N+]([O-])[O-].[Ca+2]
293.15 K, 101 kPa
Details | viscosity [mPa·s]
x2 = 0.01 | 0.17
x2 = 0.02 | 0.238
x2 = 0.042 | 0.355
x2 = 0.087 | 0.783

CCCCC(CC)COP(=O)(O)OCC(CC)CCCC (configuration not stated) + O=[N+]([O-])c1ccccc1
Details | viscosity [mPa·s]
303.15 K, 100 kPa, x1 = 0.9387 | 17.75

Nc1ccc(Br)cc1 + [Br-].[Br-].[Br-].[Sb+3]
323.15 K, 101 kPa
Details | viscosity [mPa·s]
x2 = 0.25 | 212.7
x2 = 0.333 | 1215
x2 = 0.4 | 12170
x2 = 0.45 | 20000
x2 = 0.48 | 20530
x2 = 0.5 | 20730
x2 = 0.52 | 19960
x2 = 0.55 | 11640
x2 = 0.6 | 4143
x2 = 0.75 | 239.8

C[N+](=O)[O-] + c1ccccc1
Details | viscosity [mPa·s]
293.15 K, 101.33 kPa, x1 = 0.0919 | 0.627
293.15 K, 101.33 kPa, x1 = 0.2238 | 0.606
293.15 K, 101.33 kPa, x1 = 0.2978 | 0.597
293.15 K, 101.33 kPa, x1 = 0.3994 | 0.587
293.15 K, 101.33 kPa, x1 = 0.494 | 0.582
293.15 K, 101.33 kPa, x1 = 0.7053 | 0.585
293.15 K, 101.33 kPa, x1 = 0.8004 | 0.595
293.15 K, 101.33 kPa, x1 = 0.9073 | 0.62
298.15 K, 101 kPa, x1 = 0.1559 | 0.5732
298.15 K, 101 kPa, x1 = 0.294 | 0.5584
298.15 K, 101 kPa, x1 = 0.4165 | 0.5532
298.15 K, 101 kPa, x1 = 0.5262 | 0.5534
298.15 K, 101 kPa, x1 = 0.6247 | 0.5571
298.15 K, 101 kPa, x1 = 0.7142 | 0.5652
298.15 K, 101 kPa, x1 = 0.7953 | 0.577
298.15 K, 101 kPa, x1 = 0.8693 | 0.5909
298.15 K, 101 kPa, x1 = 0.9376 | 0.6098
298.15 K, 101 kPa, x2 = 0.1005 | 0.6116
298.15 K, 101 kPa, x2 = 0.2025 | 0.5886
298.15 K, 101 kPa, x2 = 0.3017 | 0.5772
298.15 K, 101 kPa, x2 = 0.4012 | 0.5724
298.15 K, 101 kPa, x2 = 0.5019 | 0.5707
298.15 K, 101 kPa, x2 = 0.6014 | 0.5751
298.15 K, 101 kPa, x2 = 0.7074 | 0.5817
298.15 K, 101 kPa, x2 = 0.7985 | 0.5905
298.15 K, 101 kPa, x2 = 0.8947 | 0.6035
303.15 K, 101 kPa, x2 = 0.1005 | 0.5803
303.15 K, 101 kPa, x2 = 0.2025 | 0.5594
303.15 K, 101 kPa, x2 = 0.3017 | 0.5479
303.15 K, 101 kPa, x2 = 0.4012 | 0.5438
303.15 K, 101 kPa, x2 = 0.5019 | 0.5405
303.15 K, 101 kPa, x2 = 0.6014 | 0.5447
303.15 K, 101 kPa, x2 = 0.7074 | 0.5475
303.15 K, 101 kPa, x2 = 0.7985 | 0.556
303.15 K, 101 kPa, x2 = 0.8947 | 0.5662
308.15 K, 101 kPa, x2 = 0.1005 | 0.5518
308.15 K, 101 kPa, x2 = 0.2025 | 0.5299
308.15 K, 101 kPa, x2 = 0.3017 | 0.5201
308.15 K, 101 kPa, x2 = 0.4012 | 0.5142
308.15 K, 101 kPa, x2 = 0.5019 | 0.512
308.15 K, 101 kPa, x2 = 0.6014 | 0.5126
308.15 K, 101 kPa, x2 = 0.7074 | 0.5157
308.15 K, 101 kPa, x2 = 0.7985 | 0.5234
308.15 K, 101 kPa, x2 = 0.8947 | 0.5309
313.15 K, 101 kPa, x2 = 0.1005 | 0.5218
313.15 K, 101 kPa, x2 = 0.2025 | 0.5031
313.15 K, 101 kPa, x2 = 0.3017 | 0.4923
313.15 K, 101 kPa, x2 = 0.4012 | 0.4862
313.15 K, 101 kPa, x2 = 0.5019 | 0.4829
313.15 K, 101 kPa, x2 = 0.6014 | 0.4843
313.15 K, 101 kPa, x2 = 0.7074 | 0.4865
313.15 K, 101 kPa, x2 = 0.7985 | 0.4912
313.15 K, 101 kPa, x2 = 0.8947 | 0.4977
